What was measured:
Assay type in all cases: cell-based
human LAT1 [1] = molecular target: T1, human LAT1 (Homo sapiens, UniProt Q01650); test: Leucine uptake persistence inhibitory effect after compound removal in human-LAT1 highly expressing cell line; conditions: 20 μM compound for 30 minutes, removed, uptake measured 30 minutes later
Experimental: The uptake of [^14C]L-leucine remaining after the compound of the present invention was caused to act in advance and removed in the human-LAT1 highly expressing cell line was examined. In the same manner as in the uptake inhibition test, the cell line was seeded in a 24-well plate, and an MEM (Minimum Essential Medium) medium containing 20 μM of the compound (racemic form) was added to the wells and allowed to act for 30 minutes. An MEM medium containing no compound was used as a control. After the compound was caused to act, the cells were washed 3 times with the MEM medium and cultured in the MEM medium for an additional 30 minutes. Thereafter, washing was performed 3 times with Na^+Free-HBSS, and 1 μM of [^14C]L-leucine dissolved in Na^+Free-HBSS was taken up for 1 minute. The cells were washed 3 times with ice-cooled Na^+Free-HBSS, and the amount of [^14C]L-leucine taken up in the cells was determined with a liquid scintillator. In the same manner as in other tests, the amount of protein in the cell fluid was measured, and the uptake amount of [^14C]L-leucine per 1 mg of protein in the cell fluid per minute was determined.

[2] = system: Mouse colorectal cancer-derived CT26 cells; test: Cell proliferation inhibitory effect using mouse colorectal cancer cells (CCK-8 assay); conditions: 72 hours compound treatment, read-out: Evaluation of IC50 (proliferation inhibition rate of 50%)
Experimental: Mouse colorectal cancer-derived CT26 cells were adjusted to […], seeded in a 96-well plate at 1000 cells/well, and cultured in a 10% fetal bovine serum-added RPMI 1640 medium at 5% CO2 and 37° C. The culture medium was changed 24 hours after the start of the culture, and the medium containing the compound of Example was replaced to examine the action of the compound on cell proliferation. As the compound, a concentration of 0.01, 0.03, 0.1, 0.3, 1, 3, 10, or 30 μM was used. As a control, the cells were cultured in a medium containing no compound. The number of cells was evaluated by CCK-8 assay (Cell Counting Kit-8, DOJINDO LABORATORIES) 72 hours after the start of the compound treatment, and the compound concentration (IC50 value) giving a proliferation inhibition rate of 50% as compared with the control was calculated.

human LAT1 [3] = molecular target: T1, human LAT1; test: [14C]L-leucine uptake inhibition test using human-LAT1 stably expressing HEK293 cell line; parameters: having full-length cDNA of human LAT1 or LAT2 inserted under a promoter of CMV; expressed in transfected cells; key to Assay Data: degree of [14C]L-leucine uptake inhibition compared with BCH: a test compound having a higher inhibitory effect than BCH is denoted by A; a test compound having the same inhibitory effect as BCH is denoted by B; a test compound having a lower inhibitory effect than BCH is denoted by C; conditions: for Assay Data: degree of [14C]L-leucine uptake inhibition compared with BCH: compound (racemic form) and BCH at 0.1, 1.0, 10 μM, 1 μM [14C]L-leucine, 1 minute, Na+-free HBSS
Text: HEK293 cells stably expressing human LAT1 and LAT2 were produced, respectively.
A shuttle vector DNA (LAT1: pcDNA3.1(+) -hLAT1, LAT2: pcDNA3.1(+) -hLAT2; expression vector pcDNA3.1 (+) was produced by Invitrogen Corp.) having ampicillin and neomycin resistance markers and having full-length cDNA of human LAT1 or LAT2 inserted under a promoter of CMV (cytomegalovirus) was constructed. This vector was transfected into the HEK293 cells by a method using Lipofectamine (registered trademark) 2000 (Invitrogen Corp.) according to the manufacturer's instructions. Thereafter, stably expressing cell clones of transgene were selected by a limiting dilution method in the presence of 0.9 mg/mL of Geneticin (registered trademark), and among the obtained cell clones, cell clones having a high uptake of [^14C]L-leucine and maintaining stable expression even after 10 passages were obtained. These cells were used for evaluating affinity and selectivity for LAT1 and LAT2.
1-1. It has been confirmed that LAT1 is responsible for L-leucine uptake in the absence of sodium ions in the human-LAT1 stably expressing HEK293 cell line. The human-LAT1 stably expressing HEK293 cell line was seeded in a 24-well plate at 1×10^5 Cell/Well, and the [^14C]L-leucine uptake inhibition test using the compound was performed after 48 hours. After the medium was removed and the cells were washed with Hank's balanced salt solution (Na^+-free HBSS) not containing sodium ions, the cells were cultured in Na^+-free HBSS for 10 minutes. Thereafter, 1 μM of [^14C]L-leucine was taken up in Na^+-free HBSS in the presence of a test compound (0.1, 1.0, 10, 0 μM in each case), which is a racemic form, for 1 minute, and then the cells were washed three times with ice-cooled Na^+-free HBSS. To the well, 500 μL of 1 M NaOH was added, and after 30 minutes, the cells were lysed, and the cell lysate was collected. The amount of [^14C]L-leucine in the cell lysate was determined using a liquid scintillator. The amount of protein in the cell lysate was measured using BCA Assay Kit (Thermofisher Scientific), and the uptake amount of [^14C]L-leucine per 1 mg of protein in the cell per minute was calculated.
The degree of LAT1 inhibition of the compound obtained in the present invention was compared with BCH (BCH, 2-aminobicyclo-(2,2,1)-heptane-2-carboxylic acid), which is an existing LAT1 inhibitor. In the [^14C]L-leucine uptake inhibition test described above, the degrees of inhibition of [^14C]L-leucine uptake inhibition using the compound (racemic form) obtained in Examples and BCH (0.1, 1.0, 10, 0 μM for both) were compared. […] In the table, a test compound having a higher inhibitory effect than BCH is denoted by A, a test compound having the same inhibitory effect as BCH is denoted by B, and a test compound having a lower inhibitory effect than BCH is denoted by C.

T1 sequence (Q01650 whole entry): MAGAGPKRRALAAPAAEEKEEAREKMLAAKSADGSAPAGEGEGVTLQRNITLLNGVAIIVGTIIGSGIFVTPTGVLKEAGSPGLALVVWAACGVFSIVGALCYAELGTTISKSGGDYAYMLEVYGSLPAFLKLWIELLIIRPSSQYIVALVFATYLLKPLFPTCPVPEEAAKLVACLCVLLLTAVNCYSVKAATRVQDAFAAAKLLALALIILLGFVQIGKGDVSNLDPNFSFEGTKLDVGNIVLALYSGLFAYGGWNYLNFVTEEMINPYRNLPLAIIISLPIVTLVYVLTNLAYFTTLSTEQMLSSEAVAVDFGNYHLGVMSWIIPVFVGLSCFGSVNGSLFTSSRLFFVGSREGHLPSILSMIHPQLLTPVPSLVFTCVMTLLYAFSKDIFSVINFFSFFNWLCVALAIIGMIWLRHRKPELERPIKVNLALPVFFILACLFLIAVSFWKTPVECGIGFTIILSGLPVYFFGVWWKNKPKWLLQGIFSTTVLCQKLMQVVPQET
T1 sequence (P08195 102-630 partner): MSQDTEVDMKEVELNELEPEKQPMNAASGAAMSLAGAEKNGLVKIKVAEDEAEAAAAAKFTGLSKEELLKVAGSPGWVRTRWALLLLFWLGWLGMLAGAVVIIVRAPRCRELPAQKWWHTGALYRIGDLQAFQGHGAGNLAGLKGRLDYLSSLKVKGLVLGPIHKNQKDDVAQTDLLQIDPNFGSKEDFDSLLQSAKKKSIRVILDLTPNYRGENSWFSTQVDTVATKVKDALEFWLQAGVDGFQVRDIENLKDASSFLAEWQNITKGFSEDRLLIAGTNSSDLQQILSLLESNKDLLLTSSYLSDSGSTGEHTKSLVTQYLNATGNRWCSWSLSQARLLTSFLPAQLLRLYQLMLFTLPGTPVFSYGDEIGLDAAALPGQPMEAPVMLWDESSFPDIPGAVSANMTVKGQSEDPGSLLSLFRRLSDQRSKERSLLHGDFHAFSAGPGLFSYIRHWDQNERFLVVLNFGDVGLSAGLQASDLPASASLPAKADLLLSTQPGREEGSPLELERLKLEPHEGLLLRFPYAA

Structure (SMILES): Cl.NC1(C(=O)O)CCc2ccc(Oc3ccccc3-c3cccc(F)c3)cc2C1 (centres unmarked) [Example 1-30, 2-carboxy-7-((3′-fluoro-[1,1′-biphenyl]-2-yl)oxy)-1,2,3,4-tetrahydronaphthalene-2-aminium chloride]
- sustained LAT1 inhibitory effect as compared with Example 1-1 (human LAT1 [1]): more remarkable effect
- IC50 [2]: ≤ 900 nM
- Assay Data: degree of [14C]L-leucine uptake inhibition compared with BCH (human LAT1 [3]): A

Structure (SMILES): Cl.NC1(C(=O)O)CCc2ccc(Oc3ccccc3-c3cccc(Cl)c3)cc2C1 (centres unmarked) [Example 1-33, 2-carboxy-7-((3′-chloro-[1,1′-biphenyl]-2-yl)oxy)-1,2,3,4-tetrahydronaphthalene-2-aminium chloride]
- sustained LAT1 inhibitory effect as compared with Example 1-1 (human LAT1 [1]): more remarkable effect
- IC50 [2]: ≤ 900 nM
- Assay Data: degree of [14C]L-leucine uptake inhibition compared with BCH (human LAT1 [3]): A

Structure (SMILES): Cl.NC1(C(=O)O)CCc2ccc(Oc3ccccc3-c3cccc4ccccc34)cc2C1 (centres unmarked) [Example 1-35, 2-Carboxy-7-(2-(naphthalen-1-yl)phenoxy)-1,2,3,4-tetrahydronaphthalene-2-aminium chloride]
- sustained LAT1 inhibitory effect as compared with Example 1-1 (human LAT1 [1]): more remarkable effect
- IC50 [2]: ≤ 900 nM
- Assay Data: degree of [14C]L-leucine uptake inhibition compared with BCH (human LAT1 [3]): A

Structure (SMILES): Cl.NC1(C(=O)O)CCc2ccc(Oc3ccccc3-c3cccc([N+](=O)[O-])c3)cc2C1 (centres unmarked) [Example 1-42, 2-carboxy-7-((3′-nitro-[1,1′-biphenyl]-2-yl)oxy)-1,2,3,4-tetrahydronaphthalene-2-aminium chloride]
- sustained LAT1 inhibitory effect as compared with Example 1-1 (human LAT1 [1]): more remarkable effect
- IC50 [2]: ≤ 900 nM
- Assay Data: degree of [14C]L-leucine uptake inhibition compared with BCH (human LAT1 [3]): A

Structure (SMILES): Cc1cccc(-c2ccccc2Oc2ccc3c(c2)CC(N)(C(=O)O)CC3)c1.Cl (centres unmarked) [Example 1-43, 2-carboxy-7-((3′-methyl-[1,1′-biphenyl]-2-yl)oxy)-1,2,3,4-tetrahydronaphthalene-2-aminium chloride]
- sustained LAT1 inhibitory effect as compared with Example 1-1 (human LAT1 [1]): more remarkable effect
- IC50 [2]: ≤ 900 nM
- Assay Data: degree of [14C]L-leucine uptake inhibition compared with BCH (human LAT1 [3]): A

Structure (SMILES): Cc1cccc2cccc(Oc3ccc4c(c3)CC(N)(C(=O)O)CC4)c12.Cl (centres unmarked) [Example 1-46, 2-carboxy-7-((8-methylnaphthalen-1-yl)oxy)-1,2,3,4-tetrahydronaphthalene-2-aminium chloride]
- sustained LAT1 inhibitory effect as compared with Example 1-1 (human LAT1 [1]): more remarkable effect
- IC50 [2]: ≤ 900 nM
- Assay Data: degree of [14C]L-leucine uptake inhibition compared with BCH (human LAT1 [3]): A
- LAT1 inhibitory effect, compounds singled out (in words) (human LAT1 [3]; same test as Table 1): particularly remarkable effects

Structure (SMILES): Cl.NC1(C(=O)O)CCc2ccc(Oc3ccccc3-c3ccc(F)c(Cl)c3)cc2C1 (centres unmarked) [Example 1-48, 2-carboxy-7-((3′-Chloro-4′-fluoro-[1,1′-biphenyl]-2-yl)oxy)-1,2,3,4-tetrahydronaphthalene-2-aminium chloride]
- sustained LAT1 inhibitory effect as compared with Example 1-1 (human LAT1 [1]): more remarkable effect
- IC50 [2]: ≤ 900 nM
- Assay Data: degree of [14C]L-leucine uptake inhibition compared with BCH (human LAT1 [3]): A

Structure (SMILES): Cl.NC1(C(=O)O)CCc2ccc(Oc3ccccc3-c3cccc(F)c3Cl)cc2C1 (centres unmarked) [Example 1-49, 2-Carboxy-7-((2′-Chloro-3′-fluoro-[1,1′-biphenyl]-2-yl)oxy)-1,2,3,4-tetrahydronaphthalene-2-aminium chloride]
- sustained LAT1 inhibitory effect as compared with Example 1-1 (human LAT1 [1]): more remarkable effect
- IC50 [2]: ≤ 900 nM
- Assay Data: degree of [14C]L-leucine uptake inhibition compared with BCH (human LAT1 [3]): A

Structure (SMILES): CN(C)c1cccc(-c2ccccc2Oc2ccc3c(c2)CC(N)(C(=O)O)CC3)c1.Cl.Cl (centres unmarked) [Example 1-50, 2-Carboxy-7-((3′-(Dimethylammonio)-[1,1′-biphenyl]-2-yl)oxy)-1,2,3,4-tetrahydronaphthalene-2-aminium chloride]
- sustained LAT1 inhibitory effect as compared with Example 1-1 (human LAT1 [1]): more remarkable effect
- IC50 [2]: ≤ 900 nM
- Assay Data: degree of [14C]L-leucine uptake inhibition compared with BCH (human LAT1 [3]): A

Structure (SMILES): CSc1cccc(-c2ccccc2Oc2ccc3c(c2)CC(N)(C(=O)O)CC3)c1.Cl (centres unmarked) [Example 1-52, 2-Carboxy-7-((3′-(methylthio)-[1,1′-biphenyl]-2-yl)oxy)-1,2,3,4-tetrahydronaphthalene-2-aminium chloride]
- sustained LAT1 inhibitory effect as compared with Example 1-1 (human LAT1 [1]): more remarkable effect
- IC50 [2]: ≤ 900 nM
- Assay Data: degree of [14C]L-leucine uptake inhibition compared with BCH (human LAT1 [3]): A

Structure (SMILES): Cl.NC1(C(=O)O)CCc2ccc(Oc3ccccc3-c3c(F)c(F)c(F)c(F)c3F)cc2C1 (centres unmarked) [Example 1-64, 2-carboxy-7-((2′,3′,4′,5′,6′-pentafluoro-[1,1′-biphenyl]-2-yl)oxy)-1,2,3,4-tetrahydronaphthalene-2-aminium chloride]
- IC50 [2]: ≤ 900 nM
- Assay Data: degree of [14C]L-leucine uptake inhibition compared with BCH (human LAT1 [3]): A

Structure (SMILES): Cl.NC1(C(=O)O)CCc2ccc(Oc3ccccc3-c3cc(F)cc(F)c3)cc2C1 (centres unmarked) [Example 1-65, 2-Carboxy-7-((3′,5′-difluoro-[1,1′-biphenyl]-2-yl)oxy)-1,2,3,4-tetrahydronaphthalene-2-aminium chloride]
- IC50 [2]: ≤ 900 nM
- Assay Data: degree of [14C]L-leucine uptake inhibition compared with BCH (human LAT1 [3]): A

Structure (SMILES): Cl.NC1(C(=O)O)CCc2ccc(Oc3ccccc3-c3cc(F)cc(Cl)c3)cc2C1 (centres unmarked) [Example 1-66, 2-Carboxy-7-((3′-chloro-5′-fluoro-[1,1′-biphenyl]-2-yl)oxy)-1,2,3,4-tetrahydronaphthalene-2-aminium chloride]
- IC50 [2]: ≤ 900 nM
- Assay Data: degree of [14C]L-leucine uptake inhibition compared with BCH (human LAT1 [3]): A

Structure (SMILES): NC1(C(=O)O)CCc2ccc(Oc3ccccc3-c3cc(F)cc(Cl)c3Cl)cc2C1 (centres unmarked) [Example 1-67, 2-carboxy-7-((2′,3′-dichloro-5′-fluoro-[1,1′-biphenyl]-2-yl)oxy)-1,2,3,4-tetrahydronaphthalene-2-aminium chloride]
- IC50 [2]: ≤ 900 nM
- Assay Data: degree of [14C]L-leucine uptake inhibition compared with BCH (human LAT1 [3]): A

Structure (SMILES): Cl.NC1(C(=O)O)CCc2ccc(Oc3ccc([N+](=O)[O-])cc3-c3cccc4ccccc34)cc2C1 (centres unmarked) [Example 1-69, 2-Carboxy-7-(2-(naphthalen-1-yl)-4-nitrophenoxy)-1,2,3,4-tetrahydronaphthalene-2-aminium chloride]
- IC50 [2]: ≤ 900 nM
- Assay Data: degree of [14C]L-leucine uptake inhibition compared with BCH (human LAT1 [3]): A

— US20260035339A1, “TETRAHYDRONAPHTHALENE DERIVATIVE” (ATRANSEN PHARMA LTD., priority 2022, published 2026)
